In PubChem BioAssay (NCI):
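A five-concentration, 48-hour dose response in 96-well plates underlies each endpoint, interpolated linearly between surrounding concentrations. GI50 = concentration required for 50% inhibition of growth. TGI denotes the concentration required for complete inhibition of growth.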

Experiments:
Experiment in all cases: NCI tumour cell line growth inhibition, 48 h
A549 NSCLC = tested on: A549 NSCLC
BT-549 breast = tested on: BT-549 breast
HOP-62 NSCLC = tested on: HOP-62 NSCLC
HS 578T breast = tested on: HS 578T breast
HT29 colon = tested on: HT29 colon
OVCAR-3 ovarian = tested on: OVCAR-3 ovarian
SK-MEL-5 melanoma = tested on: SK-MEL-5 melanoma
TK-10 renal = tested on: TK-10 renal
KM20L2 colon = tested on: KM20L2 colon
LXFL 529 NSCLC = tested on: LXFL 529 NSCLC

| SMILES | GI50 (A549 NSCLC) [µM] | TGI (A549 NSCLC) [µM] | GI50 (BT-549 breast) [µM] | TGI (BT-549 breast) [µM] | GI50 (HOP-62 NSCLC) [µM] | TGI (HOP-62 NSCLC) [µM] | GI50 (HS 578T breast) [µM] | TGI (HS 578T breast) [µM] | GI50 (HT29 colon) [µM] | TGI (HT29 colon) [µM] | GI50 (OVCAR-3 ovarian) [µM] | TGI (OVCAR-3 ovarian) [µM] | GI50 (SK-MEL-5 melanoma) [µM] | TGI (SK-MEL-5 melanoma) [µM] | GI50 (TK-10 renal) [µM] | TGI (TK-10 renal) [µM] | GI50 (KM20L2 colon) [µM] | TGI (KM20L2 colon) [µM] | TGI (LXFL 529 NSCLC) [µM] |
| --- | --- | --- | --- | --- | --- | --- | --- | --- | --- | --- | --- | --- | --- | --- | --- | --- | --- | --- | --- |
| COc1ccc(-c2c[nH]c(C(=O)O)c2-c2cc(OC)c(OC)c(OC)c2)cc1 | 6.61 | > 100 | 10.4 | > 100 | 5.87 | > 100 | 3.42 | > 100 | 3.29 | > 100 | 2.74 | 8.05 | 3.5 | > 100 | > 100 | > 100 |  |  |  |
| FC(F)(F)c1ccc(Nc2nc(-c3c(C(F)(F)F)nc4ccccn34)cs2)cc1 | 0.0625 | 10.6 | 0.0564 | 4.02 | 0.0564 | 9.14 | 0.0356 | 2.12 | 0.0364 | 1.99 | 0.0264 | 0.0787 | 0.0358 | 1.49 | 0.917 | 8.12 |  |  |  |
| Cc1c(C(N)=O)sc2c1C(=O)N(Cc1ccccc1)C1=NN=C(c3ccc(Cl)cc3)CN12 | 3.57 | 13.5 | 3.66 | 16.4 | 3.62 | 18.5 | 5.88 | 34.2 | 4.8 | 16.1 | 3.75 | 16.4 | 1.84 | 4.76 | 6.52 | 18.9 |  |  |  |
| CN(C)CCN1C(=O)c2ccccc2N(C)c2ccccc21 | > 100 | > 100 | > 100 | > 100 | > 100 | > 100 | > 100 | > 100 | > 100 | > 100 | > 100 | > 100 | > 100 | > 100 | > 100 | > 100 |  |  |  |
| CC(C)(C)OC(=O)N1CCN(CCn2cc(C(F)(F)F)c3c(Cl)ncnc32)CC1 | 19.3 | 35.6 | 1.55 | 2.92 | 2.19 | 4.91 | 2.84 | 8.29 | 3.27 | 11.1 | 1.88 | 3.66 | 4.19 | 14.5 | 19.7 | 42.8 |  |  |  |
| O=C([CH-]C(=O)c1ccccc1)c1ccccc1.O=C([CH-]C(=O)c1ccccc1)c1ccccc1.[La+3].[OH-].[OH3+] | 20.6 | 55.2 |  |  | 10.9 | 41.9 |  |  | 19.4 | 50.1 |  |  | 10.3 | 23.9 | 32.1 | > 100 | 22.4 | 68.7 |  |
| CCN(CC)CCCCNc1c2ccccc2[n+](C)c2c1[nH]c1ccccc12 | 0.0558 | 33.2 | 1.67 | 4.15 | 0.683 | 6.15 | 0.238 | 0.865 | 0.229 | 1.09 | 0.433 | 3.56 | 0.283 | 0.976 | 2.52 | 12.6 |  |  |  |
| CN(O)c1nc(N(C)O)nc(N2CCOCC2)n1 | 2.94 | > 100 | 5.34 | > 100 | 2.27 | > 100 | 64.2 | > 100 | 4.67 | > 100 | 10.2 | > 100 | 4.09 | > 100 | 5.89 | > 100 |  |  |  |
| CCOc1ccc2c(c1)[n+]([O-])c(-c1ccc(Cl)cc1)c(N)[n+]2[O-] |  | > 100 |  |  |  | > 100 |  |  |  | > 100 |  | > 100 |  | > 100 |  |  |  | > 100 | > 100 |
| O=C1c2ccccc2C(O)(O)C1(O)C1(O)C(=O)c2ccccc2C1(O)O (stereo not drawn) |  | > 100 |  | > 100 |  | 54.1 |  | > 100 |  | > 100 |  | 65.9 |  | 39.4 |  | 58.1 |  |  |  |
| COc1cc(/C=C/C(=O)c2cccc(Nc3nc(Nc4ccccc4)nc(Nc4ccccc4)n3)c2)cc(OC)c1OC | 36.6 | > 100 | 8.36 | > 100 | 23.5 | > 94.5 | 4.83 | > 54.4 | 6.41 | > 100 | 4.49 | 56 | 2.7 | 23.8 | 63.9 | > 100 |  |  |  |
| COc1ccc(-c2cc(=O)[nH]c3c(OC)c4ccccc4c(OC)c23)cc1 | 0.708 | > 100 | 2.33 | > 100 | 1.47 | > 100 | 0.345 |  | 0.342 |  | 0.165 | 0.713 | 0.398 | > 100 | > 42.4 | > 100 |  |  |  |
| COC(=O)C1(C)CCC(c2ccc(C)cc2)=C(CC(=O)O)C1 (stereo not drawn) |  | > 100 |  | > 100 |  | > 100 |  | > 100 |  | > 100 |  | > 100 |  | > 100 |  | > 100 |  |  |  |
| COc1cc([C@@H]2OC[C@@H]3C(c4cc(OC)c5c(c4)OCO5)OC[C@@H]32)cc(OC)c1OC (stereo partly drawn) |  | > 100 |  | > 100 |  | > 100 |  | > 100 |  | > 100 |  | > 100 |  | > 100 |  | > 100 |  |  |  |
| COc1c(C)c2c(c(O)c1C/C=C(\C)CCC(=O)O)C(=O)OC2 | 0.239 | > 100 | 0.818 | > 100 | 0.512 | > 100 | 0.853 | > 100 | 0.248 | > 100 | 0.286 | > 100 | 0.411 | > 100 | 1.68 | > 100 |  |  | > 100 |
| Cc1cc2c(cc1C)N(C(=O)CCl)CC(=O)N2 | 8.23 | 26.7 | 2.64 | 11.3 | 3.3 | 12 | 4.08 | 68.8 | 2.01 | 3.73 | 1.89 | 3.33 | 3.48 | 13.6 | 2.11 | 3.59 |  |  |  |
